Structures can show the parent of a compound that is named as a salt.

Usually IC50 stands for the concentration that inhibits the measured activity by half.

One series concerns the target PRMT5 (Homo sapiens (Human), UniProt O14744). The experiment in a line: Inhibitory activity against PRMT5 enzyme activity ([3H]-SAM FlashPlate assay). The following applies: PRMT5 5 nM, [3H]-SAM 0.3 μM, polypeptide substrate 100 nM; read-out: measured enzyme inhibitory IC50 value (PRMT5 enzyme activity). Type of series: biochemical.
The subject of series [1] is human B-cell non-Hodgkin lymphoma Z-138 cells. The experiment in a line: Growth inhibitory activity on Z-138 cells (CellTiter-Glo, 5 days). Type of series: cell-based. The following applies: 5 days (120H), read-out: measured cell growth inhibitory IC50 value (Z-138 cell growth). How it is done: Vi-Cell XR cell counter, Beckmancoulter.
Cells were revived and cultured in an incubator at 37° C./5% CO2 according to the above-mentioned culturing conditions.
Periodical passaging was performed, and cell lines with good growth status in about two generations were taken for plating.
I. Cells were taken from the incubator. The cell suspension was transferred to a 50 mL centrifuge tube, and centrifuged at
800-1000 rpm for 3-5 minutes. The supernatant was discarded. An appropriate volume of culture medium was added to the centrifuge tube and gently beated to resuspend the cells evenly. Cells were counted using a Vi-Cell XR cell counter.
II. According to the measured cell density, the cell suspension was adjusted to an appropriate concentration.
III. The cell suspension was added into the 384-well plate, 40 μL/well, containing 700 cells/well, and an equal volume of culture medium without cells was added to the blank control well.
I. A compound was dissolved in 100% DMSO to formulate a 10 mM stock solution.
II. The stock solution with a concentration of 10 mM was taken, diluted with DMSO to a 2 mM solution, which was used as the starting concentration to perform a 4× gradient dilution with DMSO for 9 points.
III. 200 nL of the above compound solutions in gradient concentrations were taken and added to each well respectively.
To the blank control well and the DMSO control well were respectively added 200 nL DMSO solutions, and the final concentration of DMSO was 0.5%.
IV. The cell plate was incubated in a carbon dioxide incubator for 5 days (120H).
I. CellTiter-Glo buffer was thawed and allowed to come to room temperature.
II. A lyophilized CellTiter-Glo substrate was allowed to come to room temperature.
III. CellTiter-Glo buffer was added to a bottle of CellTiter-Glo substrate to dissolve the substrate to formulate a CellTiter-Glo working solution.
IV. The working solution was slowly vortexed to fully dissolve the contents.
V. The cell culture plate was taken and allowed to equilibrate to room temperature.
VI. […] of a mixed CellTiter Glo reagent was added to each well, oscillated for 10 minutes in the dark, and incubated for 10 minutes.
The inhibition rates (IRs) of the detected compounds were calculated according to the following formula:
IR (%)=(1−(RLUcompound−RLUblank control)/(RLUDMSO−RLUblank control)*100%,
XLFit was used to plot the efficacy inhibition rate curve, and the IC50 value was calculated using the following 4-parameter model: [fit=(A±((B−A)/(1+((C/x)^D))))].
On the technique in general: Cellular ATP, detected with luciferase, serves as a proxy for viable cell number.

The conditions of series [2]: Phase I, adult patients with solid tumors; cited from earlier work.
In series [3] the test system is Xenograft models of small cell lung cancer (SCLC), non-small cell lung cancer (NSCLC), acute myeloid leukemia (AML) and non-Hodgkin's lymphoma. The conditions noted are these: cited from earlier work.

Chain of PRMT5 (O14744 2-637): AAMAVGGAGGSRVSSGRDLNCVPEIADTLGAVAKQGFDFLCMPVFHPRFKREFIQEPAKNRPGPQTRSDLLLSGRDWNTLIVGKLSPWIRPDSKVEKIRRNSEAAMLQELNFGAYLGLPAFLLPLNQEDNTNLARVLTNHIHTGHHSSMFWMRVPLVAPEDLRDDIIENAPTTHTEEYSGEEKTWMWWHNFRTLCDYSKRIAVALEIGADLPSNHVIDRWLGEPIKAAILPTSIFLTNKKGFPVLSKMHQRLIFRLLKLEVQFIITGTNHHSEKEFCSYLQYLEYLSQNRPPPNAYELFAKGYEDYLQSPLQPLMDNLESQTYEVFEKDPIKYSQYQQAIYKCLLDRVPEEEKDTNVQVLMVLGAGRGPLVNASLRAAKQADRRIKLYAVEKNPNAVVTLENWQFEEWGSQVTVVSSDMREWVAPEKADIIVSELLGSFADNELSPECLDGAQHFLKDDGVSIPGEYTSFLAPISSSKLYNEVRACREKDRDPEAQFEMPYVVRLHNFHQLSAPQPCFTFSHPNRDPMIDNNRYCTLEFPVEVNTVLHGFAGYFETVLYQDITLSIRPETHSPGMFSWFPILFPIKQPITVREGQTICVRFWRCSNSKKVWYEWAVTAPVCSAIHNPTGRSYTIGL
Chain of PRMT5 (Q9BQA1 2-342 partner): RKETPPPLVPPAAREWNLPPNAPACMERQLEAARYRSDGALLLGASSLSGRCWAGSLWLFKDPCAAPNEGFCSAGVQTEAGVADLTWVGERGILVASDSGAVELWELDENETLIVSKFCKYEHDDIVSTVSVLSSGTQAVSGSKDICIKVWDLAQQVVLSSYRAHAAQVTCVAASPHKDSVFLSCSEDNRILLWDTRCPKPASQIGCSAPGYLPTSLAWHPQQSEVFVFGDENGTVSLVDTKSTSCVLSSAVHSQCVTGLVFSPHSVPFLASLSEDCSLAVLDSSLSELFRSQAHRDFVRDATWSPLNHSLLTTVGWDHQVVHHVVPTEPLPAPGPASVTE

With `CC(=O)N1CCC(Oc2cc(C(=O)N3CC[C@H](N4CCc5ccccc5C4)[C@@H](O)C3)ncn2)CC1` (relative stereo) [Example 1, trans-1-(4-((6-(4-(3,4-dihydroisoquinoline-2(1H)-yl)-3-hydroxypiperidine-1-carbonyl)pyrimidine-4-yl)oxy)piperidine-1-yl)ethane-1-one], on PRMT5, the concentration for half-maximal inhibition (IC50) was 65 nM.

For the compound `COCCCCNc1cc(C(=O)N2CC[C@@H](N3CCc4ccccc4C3)[C@H](O)C2)nc(-c2ccccc2)n1` (stereo in doubt) [Example 45], the 50% inhibitory concentration (IC50) in series [1] came out at 1320 nM.

Take `CC(=O)N1CCC(Nc2cc(C(=O)N3CC[C@@H](N4CCc5ccccc5C4)[C@H](O)C3)nc(C)n2)CC1` [Control Example 2, 1-(4-((6-((3R,4R)-4-(3,4-dihydroisoquinoline-2(1H)-yl)-3-hydroxypiperidine-1-carbonyl)-2-methylpyrimidine-4-yl)amino)piperidine-1-yl)ethanone]: at PRMT5, the half-maximal inhibitory concentration (IC50) came to 36 nM.

Turning to `CC(=O)N1CCC(Nc2cc(C(=O)N3CC[C@H](N4CCc5ccccc5C4)[C@@H](O)C3)nc(-c3ccccc3F)n2)CC1` [Example 12], at PRMT5, the IC50 came out at 35.2 nM.

Take `O=C(c1cc(NC2CCCCC2)nc(-c2ccccc2)n1)N1CC[C@@H](N2CCc3ccccc3C2)[C@H](O)C1` [Example 37]: the concentration for half-maximal inhibition (IC50) on PRMT5 stood at 99.8 nM.

As to `CC(=O)N1CC(Nc2cc(C(=O)N3CC[C@@H](N4CCc5ccccc5C4)[C@H](O)C3)nc(-c3ccccc3)n2)C1` [Example 39], the half-inhibitory concentration (IC50) in series [1] was 135 nM.

Take `C=Cc1nc(NC2CCN(C(C)=O)CC2)cc(C(=O)N2CC[C@@H](N3CCc4ccccc4C3)[C@H](O)C2)n1` [Example 46]: on PRMT5, the IC50 stood at 29.1 nM.

Consider `CC(=O)N1CCC(Nc2cc(C(=O)N3CC[C@@H](N4CCc5ccccc5C4)[C@H](O)C3)nc(C(=O)N(C)C)n2)CC1` [Example 59], for which the IC50 at PRMT5 is 107 nM.

For the compound `CC(=O)N1CCC(Nc2cc(C(=O)N3CC[C@@H](N4CCc5ccccc5C4)[C@H](O)C3)nc(-c3cc4ccccc4s3)n2)CC1` [Example 66], in series [1], the IC50 amounted to 1360 nM.

As for `CC(=O)N1CCC(Nc2nc(C(=O)N3CC[C@@H](N4CCc5ccccc5C4)[C@H](O)C3)nc(-c3ccccc3)n2)CC1` [Example 70], the half-inhibitory concentration (IC50) on PRMT5 was determined as 66.4 nM.

For the compound `CC(=O)N1CCC(Nc2cc(C(=O)N3CC[C@H](N4CCc5ccccc5C4)[C@@H](O)C3)nc(-n3ccnc3)n2)CC1` [Example 73], the IC50 on PRMT5 is 110 nM.

Turning to `O=C(c1ccc(C(F)(F)F)cc1)N1CCC(Nc2cc(C(=O)N3CC[C@@H](N4CCc5ccccc5C4)[C@H](O)C3)ncn2)CC1` [Example 153], the IC50 on PRMT5 was determined as 6.97 nM; in series [1], 13.8 nM.

For the compound `O=C(c1ccccc1)N1CCC(Nc2cc(C(=O)N3CC[C@@H](N4CCc5ccccc5C4)[C@H](O)C3)ncn2)CC1` [Example 158], the half-maximal inhibitory concentration (IC50) in series [1] was found to be 19 nM.

With `O=C(c1ccncc1)N1CCC(Nc2cc(C(=O)N3CC[C@@H](N4CCc5ccccc5C4)[C@H](O)C3)ncn2)CC1` [Example 165], in series [1], the IC50 came out at 33.7 nM.

Consider `O=C(c1ccncn1)N1CCC(Nc2cc(C(=O)N3CC[C@@H](N4CCc5ccccc5C4)[C@H](O)C3)ncn2)CC1` [Example 170], for which the concentration for half-maximal inhibition (IC50) in series [1] amounted to 62.8 nM.

As to `Cc1ccc(C(=O)N2CCC(Nc3cc(C(=O)N4CC[C@@H](N5CCc6ccccc6C5)[C@H](O)C4)ncn3)CC2)cc1` [Example 171], the IC50 in series [1] worked out at 11.5 nM.

In the case of `O=C(c1cccc(F)c1)N1CCC(Nc2cc(C(=O)N3CC[C@@H](N4CCc5ccccc5C4)[C@H](O)C3)ncn2)CC1` [Example 172], the IC50 at PRMT5 was found to be 20.5 nM.

Take `O=C(c1ccccn1)N1CCC(Nc2cc(C(=O)N3CC[C@@H](N4CCc5ccccc5C4)[C@H](O)C3)ncn2)CC1` [Example 173]: the IC50 at PRMT5 is 51.2 nM.

Consider `Cn1cc(C(=O)N2CCC(Nc3cc(C(=O)N4CC[C@@H](N5CCc6ccccc6C5)[C@H](O)C4)nc(OC4CCCC4)n3)CC2)cn1` [Example 193], for which the 50% inhibitory concentration (IC50) on PRMT5 turned out to be 6.4 nM.

On to `O=C(c1cc(NC2CCN(C(=O)c3cccs3)CC2)nc(OC2CCCC2)n1)N1CC[C@@H](N2CCc3ccccc3C2)[C@H](O)C1` [Example 194], for which the half-maximal inhibitory concentration (IC50) was found to be 4.5 nM on PRMT5 and 11 nM in series [1].

As for `CCC(CC)Oc1nc(NC2CCN(C(=O)c3ccccc3)CC2)cc(C(=O)N2CC[C@@H](N3CCc4ccccc4C3)[C@H](O)C2)n1` [Example 202], the IC50 at PRMT5 turned out to be 5.2 nM; in series [1], 8 nM.

For `CC(C)Oc1nc(NC2CCN(C(=O)c3cccs3)CC2)cc(C(=O)N2CC[C@@H](N3CCc4ccccc4C3)[C@H](O)C2)n1` [Example 207], the IC50 on PRMT5 amounted to 3.9 nM; in series [1] it was 12 nM.

For `CC(C)COc1nc(NC2CCN(C(=O)c3ccn(C)n3)CC2)cc(C(=O)N2CC[C@@H](N3CCc4ccccc4C3)[C@H](O)C2)n1` [Example 212], in series [1], the IC50 was determined as 22.2 nM.

Take `CC(C)COc1nc(NC2CCN(C(=O)c3cnn(C)c3)CC2)cc(C(=O)N2CC[C@@H](N3CCc4ccccc4C3)[C@H](O)C2)n1` [Example 213]: the concentration for half-maximal inhibition (IC50) on PRMT5 was 4.5 nM.

Turning to `Cn1cc(N2CCC(Nc3cc(C(=O)N4CC[C@@H](N5CCc6ccccc6C5)[C@H](O)C4)nc(OC4CCCC4)n3)CC2)cn1` [Example 215], the IC50 in series [1] was determined as 157 nM.

As to `CC(C)Oc1nc(NC2CCN(C(=O)c3ccn(C)n3)CC2)cc(C(=O)N2CC[C@@H](N3CCc4ccccc4C3)[C@H](O)C2)n1` [Example 217], in series [1], the IC50 is 60.5 nM.

Consider `CCC(CC)Oc1nc(NC2CCN(C(=O)c3cnn(C)c3)CC2)cc(C(=O)N2CC[C@@H](N3CCc4ccccc4C3)[C@H](O)C2)n1` [Example 243], for which the half-inhibitory concentration (IC50) in series [1] came to 5.8 nM.

With `Cn1cc(C(=O)N2CCC(Nc3cc(C(=O)N4CC[C@@H](N5CCc6ccccc6C5)[C@H](O)C4)nc(SC4CCCC4)n3)CC2)cn1` [Example 253], in series [1], the half-inhibitory concentration (IC50) amounted to 7.4 nM.

As to `CN(C)CCCOc1nc(NC2COC2)cc(C(=O)N2CC[C@@H](N3CCc4ccccc4C3)[C@H](O)C2)n1` [Example 259], the IC50 in series [1] is 1190 nM.

In the case of `CC(=O)N1CCC(Nc2cc(OC3CCCC3)nc(C(=O)N3CC[C@@H](N4CCc5ccccc5C4)[C@H](O)C3)c2)CC1` [Example 276], the IC50 in series [1] worked out at 111 nM.

Take `Cc1ccc(C(=O)N2CCC(Nc3cc(C(=O)N4CC[C@@H](N5CCc6ccccc6C5)[C@H](O)C4)nc(N4CCCC4)n3)CC2)cc1` [Example 315]: on PRMT5, the concentration for half-maximal inhibition (IC50) came out at 4.7 nM.

Consider `CC(=O)N1CCC(Nc2cc(C(=O)N3CC[C@@H](N4CCc5ccccc5C4)[C@H](O)C3)nc(Nc3ccccc3)n2)CC1` [Example 339], for which the IC50 in series [1] is 65.3 nM.

Regarding `COc1nc(NC2CCN(C(=O)c3ccc(C)cc3)CC2)cc(C(=O)N2CC[C@@H](N3CCc4ccccc4C3)[C@H](O)C2)n1` [Example 392, ((3R,4R)-4-(3,4-dihydroisoquinoline-2(1H)-yl)-3-hydroxypiperidine-1-yl)(2-methoxy-6-((1-(4-methylbenzoyl)piperidine-4-yl)amino)pyrimidine-4-yl)methanone hydrochloride], the 50% inhibitory concentration (IC50) on PRMT5 amounted to 2.8 nM; in series [1], 12.3 nM.

For `[2H]C1([2H])CN([C@@H]2CCN(C(=O)c3cc(NC4CCN(C(=O)c5ccccc5)CC4)nc(OC(C)C)n3)C[C@H]2O)Cc2ccccc21` [Example 401, (6-((1-(benzoyl)piperidine-4-yl)amino)-2-isopropoxypyrimidine-4-yl)((3R,4R)-4-(3,4-dihydroisoquinoline-2(1H)-yl-4,4-d2)-3-hydroxypiperidine-1-1)methanone], the IC50 on PRMT5 stood at 7.9 nM; in series [1], 16 nM.

Regarding `CC(=O)N1CCC(Nc2cc(C(=O)NC[C@H](O)CN3CCc4ccccc4C3)ncn2)CC1` [GSK3326595], the PK in plasma entry in series [2] was “dose-dependent”.

In the case of `Nc1nc2cc(CC[C@H]3C[C@@H](n4ccc5c(N)ncnc54)[C@H](O)[C@@H]3O)ccc2cc1Br` [JNJ-64619178], the tumor growth inhibition entry in series [3] is recorded as “up to 99%”.

(Values after patent publication US20250206717A1, “COMPOUND HAVING ANTI-TUMOR ACTIVITY AND USE THEREOF” (Innovstone Therapeutics Limited, priority 2021, published 2025).)
